Source: patent EP2891491A1, “Use of (r)-phenylpiracetam for the treatment of sleep disorders” (Merz Pharma GmbH & Co. KGaA, priority 2014, dated 2015)

Experiments:
[1] = just slightly stronger with (R)- than with (S)-phenylpiracetam; cited from earlier work
[2] = system: rats; assay: electroencephalography (EEG) screen in freely moving rats; format: in vivo
Experimental: EXAMPLE 5: Testing of (R)-phenylpiracetam in an electroencephaloaraphy (EEG) screen - Fig. 4
(R)-Phenylpiracetam was tested at four different concentrations (1 mg/kg, 12.5 mg/kg, 25 mg/kg, and 50 mg/kg) in an EEG screen as described by Dimpfel (Dimpfel, Neuropsychobiology, 58 (2008)178-86).
Eight adult Fisher 344 rats (8 months of age, kept on inverse light-dark cycle, weight about 400 g, provided by Charles River Laboratories, D-97633, Sulzfeld) were used in this experimental series. Animals were implanted with electrodes into the brain and were given two weeks for recovery from surgery. After this the transmitter was plugged in for adaptation and control experiments.
The animals were allowed to acclimatize for at least 4 weeks before the study started. There was automatic control of light cycle, temperature and humidity. Light hours were 18 h in the evening - 6 h in the morning. […] Cages, bedding, and water bottles were changed at regular intervals, i.e. every 2-3 days. Standard diet (Nohrlin H10, Altromin, D-32791 Lage, Germany) was available to the animals ad libitum. The animals had access to domestic quality mains water ad libitum.
Rats were implanted with 4 bipolar concentric steel electrodes within a stereotactic surgical procedure during anaesthesia with ketamine. All four electrodes were placed 3 mm lateral within the left hemisphere. Dorsoventral coordinates were 4, 6, 4.2 and 8 mm and anterior coordinates were 3.7, 9.7, 5.7 and 12.2 mm for frontal cortex, striatum, hippocampus, and reticular formation, respectively (according to the atlas of Paxinos and Watson, 1982). A pre-constructed base plate carrying 4 bipolar stainless steel semi-micro electrodes (neurological electrodes "SNF 100" from Rhodes Medical Instruments, Inc., Summerland, CA 93067, USA) and a 5-pin-plug was fixed to the skull by dental cement interacting with 3 steel screws placed on distance into the bone. The distant recording spot of the electrode was the active electrode whereas the proximal spots of the four electrodes were connected to each other to give a reference. The base plate was carrying a plug to receive later on the transmitter (weight: 5.2 g including battery, 26 mm x 12 mm x 6 mm of size).
EEG signals were recorded from frontal cortex, hippocampus, striatum and reticular formation of freely moving rats from inside a totally copper shielded room. Signals were wirelessly transmitted by a radio-telemetric system (Rhema Labortechnik, Hofheim, Germany, using 40 MHz as carrier frequency) and were amplified and processed as described earlier to give power spectra of 0.25 Hz resolution (Dimpfel et al. 1986; Dimpfel et al. 1988; Dimpfel et al. 1989; Dimpfel, 2003). […]

Question: With `NC(=O)CN1C[C@@H](c2ccccc2)CC1=O` [(R)-phenylpiracetam] as the molecule, how does the “locomotor activity in the open-field test” value [1] read?
Answer: significant increase

Question: What about the “theta, delta, alpha1 and beta2 waves in the reticular formation” value ([2]; EEG pattern compared with nootropics) of the same molecule?
Answer: no change

Question: And the “alpha2 and beta1 waves” value ([2]; i.p., 1, 12.5, 25 and 50 mg/kg)?
Answer: dose dependent attenuation

Question: And the “theta power within the frontal cortex” value ([2]; i.p., highest dosage)?
Answer: increases

Question: And the Motility ([2]; i.p., video tracking during EEG)?
Answer: increased
